Test results: PubChem BioAssay (NCI)
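Protocol summary: plate cells (96-well), add compound at 5 concentrations, incubate 48 h, interpolate endpoints linearly. GI50 = concentration required for 50% inhibition of growth. TGI: concentration producing complete growth inhibition.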

Key:
Assay in all cases: inhibition of tumour cell growth, NCI panel, 48 h
[1] = test system: TK-10 renal
[2] = test system: SNB-75 CNS
[3] = test system: A549 NSCLC
[4] = test system: MALME-3M melanoma
[5] = test system: SF-539 CNS
[6] = test system: EKVX NSCLC
[7] = test system: BT-549 breast
[8] = test system: IGROV1 ovarian
[9] = test system: HOP-92 NSCLC
[10] = test system: SF-268 CNS
[11] = test system: HOP-62 NSCLC
[12] = test system: UACC-257 melanoma
[13] = test system: HT29 colon
[14] = test system: UO-31 renal
[15] = test system: T-47D breast
[16] = test system: RPMI-8226 leukemia
[17] = test system: HCC-2998 colon
[18] = test system: SK-MEL-28 melanoma
[19] = test system: SK-MEL-5 melanoma
[20] = test system: SW-620 colon
[21] = test system: NCI/ADR-RES ovarian
[22] = test system: DU-145 prostate
[23] = test system: SR leukemia
[24] = test system: M14 melanoma
[25] = test system: NCI-H23 lung
[26] = test system: ACHN renal
[27] = test system: HCT-116 colon
[28] = test system: OVCAR-5 ovarian
[29] = test system: HCT-15 colon
[30] = test system: MOLT-4 leukemia
[31] = test system: HS 578T breast
[32] = test system: OVCAR-3 ovarian
[33] = test system: HL-60(TB) leukemia
[34] = test system: OVCAR-4 ovarian
[35] = test system: KM12 colon
[36] = test system: SNB-19 CNS
[37] = test system: LOX IMVI melanoma
[38] = test system: COLO 205 colon
[39] = test system: RXF 393 renal
[40] = test system: MDA-MB-435
[41] = test system: A498 renal
[42] = test system: CCRF-CEM leukemia
[43] = test system: OVCAR-8 ovarian
[44] = test system: SF-295 CNS
[45] = test system: SN12C renal
[46] = test system: 786-0 renal
[47] = test system: NCI-H522 lung
[48] = test system: SK-MEL-2 melanoma
[49] = test system: MCF7 breast
[50] = test system: NCI-H226 lung
[51] = test system: U251 CNS
[52] = test system: MDA-MB-231 breast
[53] = test system: SK-OV-3 ovarian
[54] = test system: PC-3 prostate
[55] = test system: UACC-62 melanoma
[56] = test system: NCI-H460 lung

O=C(O)c1sccc1O
GI50 [1]: 89.6 µM
TGI [1]: > 100 µM
GI50 [2]: 15.9 µM
TGI [2]: > 100 µM
GI50 [3]: 50.3 µM
TGI [3]: > 100 µM
GI50 [4]: 83.4 µM
TGI [4]: > 100 µM
GI50 [5]: 28.8 µM
TGI [5]: > 100 µM
GI50 [6]: 21.7 µM
TGI [6]: > 100 µM
GI50 [7]: 21.6 µM
TGI [7]: > 100 µM
GI50 [8]: 21.8 µM
TGI [8]: > 100 µM
GI50 [9]: 24.9 µM
TGI [9]: > 100 µM
GI50 [10]: 33.2 µM
TGI [10]: > 100 µM
GI50 [11]: 22.2 µM
TGI [11]: > 100 µM
GI50 [12]: 47.2 µM
TGI [12]: > 100 µM
GI50 [13]: 57.5 µM
TGI [13]: > 100 µM
GI50 [14]: 15.2 µM
TGI [14]: > 100 µM
GI50 [15]: 33.3 µM
TGI [15]: > 100 µM
GI50 [16]: 25.2 µM
TGI [16]: > 100 µM
GI50 [17]: 36.6 µM
TGI [17]: > 100 µM
GI50 [18]: 32.2 µM
TGI [18]: > 100 µM
GI50 [19]: 25.3 µM
TGI [19]: 99.2 µM
GI50 [20]: 31.4 µM
TGI [20]: > 100 µM
GI50 [21]: 40.5 µM
TGI [21]: > 100 µM
GI50 [22]: 48 µM
TGI [22]: > 100 µM
GI50 [23]: 34.5 µM
TGI [23]: > 100 µM
GI50 [24]: 27 µM
TGI [24]: > 100 µM
GI50 [25]: 37.3 µM
TGI [25]: > 100 µM
GI50 [26]: 28.6 µM
TGI [26]: > 100 µM
GI50 [27]: 31.2 µM
TGI [27]: > 100 µM
GI50 [28]: 76.3 µM
TGI [28]: > 100 µM
GI50 [29]: 32.1 µM
TGI [29]: > 100 µM
GI50 [30]: 34.9 µM
TGI [30]: > 100 µM
GI50 [31]: 24.9 µM
TGI [31]: > 100 µM
GI50 [32]: 32.7 µM
TGI [32]: > 100 µM
GI50 [33]: 33.9 µM
TGI [33]: 90.1 µM
GI50 [34]: 26.4 µM
TGI [34]: > 100 µM
GI50 [35]: 30.6 µM
TGI [35]: > 100 µM
GI50 [36]: 41.3 µM
TGI [36]: > 100 µM
GI50 [37]: 26.4 µM
TGI [37]: > 100 µM
GI50 [38]: 60.1 µM
TGI [38]: > 100 µM
GI50 [39]: 32 µM
TGI [39]: > 100 µM
GI50 [40]: 27.1 µM
TGI [40]: > 100 µM
GI50 [41]: 52.3 µM
TGI [41]: > 100 µM
GI50 [42]: 31.9 µM
TGI [42]: > 100 µM
GI50 [43]: 47.7 µM
TGI [43]: > 100 µM
GI50 [44]: 34.8 µM
TGI [44]: > 100 µM
GI50 [45]: 32.7 µM
TGI [45]: > 100 µM
GI50 [46]: 60.9 µM
TGI [46]: > 100 µM
GI50 [47]: 25.4 µM
TGI [47]: 80.7 µM
GI50 [48]: 35.1 µM
TGI [48]: > 100 µM
GI50 [49]: 31.5 µM
TGI [49]: > 100 µM
GI50 [50]: > 100 µM
TGI [50]: > 100 µM
GI50 [51]: 34.7 µM
TGI [51]: > 100 µM
GI50 [52]: 16.4 µM
TGI [52]: 73.5 µM
GI50 [53]: > 100 µM
TGI [53]: > 100 µM
GI50 [54]: 24.2 µM
TGI [54]: > 100 µM
GI50 [55]: 17.9 µM
TGI [55]: 52 µM
GI50 [56]: 33.5 µM
TGI [56]: > 100 µM
